{"source": "patent US6517846B2", "about": "“Cosmetic composition” (Kyowa Hakko Kogyo Co., Ltd., priority 2000, dated 2003)", "key": {"[1]": {"test_system": "human subjects (washing hands)", "details": "grades scored; 1 Very irritative, 5 Very mild; mean n = 5", "method": "The test compounds were evaluated using the following five grades. The intermediate grade between 1 and 3 was made 2, and that between 3 and 5 was made 4. Each grade 1, 2, 3, 4, 5 was scored as −5, −1.5, 0, 1.5, and 5, respectively, and the average of the scores was calculated for each evaluation item."}, "[2]": {"test_system": "human normal keratinocytes", "experiment": "Cytotoxicity in human normal keratinocytes, MTT method", "type": "cell-based", "details": "48 hours incubation, 1 to 10,000 ppm, pH 7, mean n = 4", "experimental": "(1) A method using 3-(4,5-dimethylthiazol-2-yl)-2,5-diphenyl tetrazolium bromide (MTT method):\nThis is a method where the number of living cells is evaluated by determining enzyme activity related to respiratory chain present in inner membranes of mitochondria in living cells. The amount of MTT formazan produced after incorporation of MTT into cells was determined by colorimetric quantification at a wavelength of 570 nm (reference: 650 nm). [See Sugawara, et al., “Saibou Baiyou (Cell Culture) III”, 4477-4482 (1984); J. Soc. Cosmet. Chem. Jpn., 27, 498-505 (1993)].\n(§1) (4) Using the above three methods for the evaluation of suppression of cytotoxicity, suppressive effects of the test compounds on cytotoxicity were determined as follows."}, "[3]": {"test_system": "human skin (forearm crook, females with roughening skin)", "method": "A cup of 1-cm diameter was closely fixed to the skin of a forearm crook, and 0.5 ml of a solution containing 5 w/v % test compound was poured into the cup for treatment for 30 minutes. Then, the test site was washed with tepid water and wiped with a Kim wipe.\nOn the next day of that when the above treatment was completed, transpiration rates of water at the treated sites were measured using a TEWA meter (TM210, supplied by Nippon Eurotech Co., Ltd.)"}, "[4]": {"test_system": "human skin (forearm crook, females with roughening skin)", "experiment": "Water content in skin after repeated cup treatment (Skicon-200)", "type": "in vivo", "details": "for Change of water content immediately before the treatment / Change of water content immediately after the second treatment: 5 w/v % solution; for Change of water content immediately before the treatment: twice a day; for water content in the skin, tendency in words: summary of Table 3", "method": "A cup of 1-cm diameter was closely fixed to the skin of a forearm crook, and 0.5 ml of a solution containing 5 w/v % test compound was poured into the cup for treatment for 30 minutes. Then, the test site was washed with tepid water and wiped with a Kim wipe. The skin was acclimated under a constant environment at a temperature of 20° C. and a relative humidity of 50% for 20 minutes, and then, the water content in skin was measured using Skicon-200 (supplied by IBS Corporation). The treatment was repeated twice a day and continued for 4 days to determine the change of the water content in skin. The water content in each site to be treated before the treatment on day 0 was defined as 100%, and the water content in each site treated with the test compound immediately before and after the treatment (after the second treatment) on each day was determined as a relative value (%)."}, "[5]": {"test_system": "human skin (forearm crook, females with roughening skin)", "details": "78 hours after the first treatment on day 1, 5 w/v % solution"}, "[6]": {"test_system": "human normal keratinocytes", "experiment": "Cytotoxicity in human normal keratinocytes, neutral red (NR) method", "type": "cell-based", "details": "48 hours incubation, 1 to 10,000 ppm, pH 7, mean n = 4", "experimental": "(2) Neutral red (NR) method:\nNR penetrates plasma membranes and is concentrated in lysosomes in normal cells, but is not capable of being incorporated into cells with surface damages. Thus, the NR method is a method where the number of living cells is evaluated by determining the amount of NR incorporated in living cells (the absorbance at a wavelength of 540 nm was measured), and was carried out according to the NR bioassay data book of Sanko Pure Chemicals.\nas §1"}, "[7]": {"test_system": "IL-1α", "details": "mean n = 2", "method": "The determination of IL-1α was carried out using an IL-1α human ELISA system supplied by Amarsham.\nThe cells were seeded in a 25 cm^2-flask coated with collagen and cultured at 37° C. under 5% of CO2 for 6 days.\nOne day after the seeding, the test compounds prepared at given concentrations (1 to 10,000 ppm, pH 7) were each added to the culture and continuously incubated for 48 hours.\nAlso, the release of IL-1α from the cultured cells was determined by calculating IL-1α concentration in the culture media with a lapse of time."}, "[8]": {"details": "Day 1 (0 hr.), baseline defined as 100%, 30 min"}, "[9]": {"details": "Day 1 (6 hr.), relative to pre-treatment = 100%"}, "[10]": {"details": "Day 2 (24 hr.), relative to pre-treatment = 100%"}, "[11]": {"details": "Day 2 (30 hr.), relative to pre-treatment = 100%"}, "[12]": {"details": "Day 3 (48 hr.), relative to pre-treatment = 100%"}, "[13]": {"details": "Day 3 (54 hr.), relative to pre-treatment = 100%"}, "[14]": {"details": "Day 4 (72 hr.), relative to pre-treatment = 100%"}, "[15]": {"details": "Day 4 (78 hr.), relative to pre-treatment = 100%"}}, "note": "Structures can show the parent of a compound that is named as a salt. Where two headings read alike, the source gives them in different places.", "data": [{"compound": "CCCCCCCCCCCC(=O)NCCC(=O)O", "note": "[LBA, sodium salt of lauroyl β-alanine]", "values": [{"measurement": "Irritation (after use), average score", "setting": "[1]", "value": 1.5}, {"measurement": "MTT, IC50", "setting": "[2]", "value": 35, "unit": "ppm"}, {"measurement": "water transpiration rate, in words", "setting": "[3]; summary of Table 5", "value": "lowest"}, {"measurement": "Change of water content immediately before the treatment", "setting": "[4]; [8]", "value": 100, "unit": "%"}, {"measurement": "Change of water content immediately after the second treatment", "setting": "[4]; [9]", "value": 113, "unit": "%"}, {"measurement": "Change of water content immediately before the treatment", "setting": "[4]; [10]", "value": 88, "unit": "%"}, {"measurement": "Change of water content immediately after the second treatment", "setting": "[4]; [11]", "value": 82, "unit": "%"}, {"measurement": "Change of water content immediately before the treatment", "setting": "[4]; [12]", "value": 104, "unit": "%"}, {"measurement": "Change of water content immediately after the second treatment", "setting": "[4]; [13]", "value": 104, "unit": "%"}, {"measurement": "Change of water content immediately before the treatment", "setting": "[4]; [14]", "value": 93, "unit": "%"}, {"measurement": "Change of water content immediately after the second treatment", "setting": "[4]; [15]", "value": 101, "unit": "%"}, {"measurement": "water content in the skin, tendency in words", "setting": "[4]", "value": "no effect on the water content was observed"}, {"measurement": "Desquamation", "setting": "[5]", "value": "A little"}, {"measurement": "Erythema", "setting": "[5]", "value": "None"}, {"measurement": "Desquamation", "setting": "[5]; listed as lauroyl β-alanine", "value": "lowest"}, {"measurement": "NR, IC50", "setting": "[6]", "value": 33, "unit": "ppm"}]}, {"compound": "Triethanolamine N-Cocoyl-L-glutaminate [GMT]", "values": [{"measurement": "MTT, IC50", "setting": "[2]", "value": 70, "unit": "ppm"}, {"measurement": "Change of water content immediately before the treatment", "setting": "[4]; [8]", "value": 100, "unit": "%"}, {"measurement": "Change of water content immediately after the second treatment", "setting": "[4]; [9]", "value": 124, "unit": "%"}, {"measurement": "Change of water content immediately before the treatment", "setting": "[4]; [10]", "value": 135, "unit": "%"}, {"measurement": "Change of water content immediately after the second treatment", "setting": "[4]; [11]", "value": 126, "unit": "%"}, {"measurement": "Change of water content immediately before the treatment", "setting": "[4]; [12]", "value": 168, "unit": "%"}, {"measurement": "Change of water content immediately after the second treatment", "setting": "[4]; [13]", "value": 128, "unit": "%"}, {"measurement": "Change of water content immediately before the treatment", "setting": "[4]; [14]", "value": 140, "unit": "%"}, {"measurement": "Change of water content immediately after the second treatment", "setting": "[4]; [15]", "value": 120, "unit": "%"}, {"measurement": "water content in the skin, tendency in words", "setting": "[4]", "value": "tendency to increase with a lapse of time"}, {"measurement": "NR, IC50", "setting": "[6]", "value": 53, "unit": "ppm"}]}, {"compound": "triethanolamine N-cocoyl glutamate [GAT]", "values": [{"measurement": "Irritation (after use), average score", "setting": "[1]", "value": 1.2}, {"measurement": "MTT, IC50", "setting": "[2]", "value": 60, "unit": "ppm"}, {"measurement": "Relative water transpiration rates", "setting": "[3]; next day after the 4-day treatment, Control = 100, mean n = 4", "value": 138, "unit": "%"}, {"measurement": "Change of water content immediately before the treatment", "setting": "[4]; [8]", "value": 100, "unit": "%"}, {"measurement": "Change of water content immediately after the second treatment", "setting": "[4]; [9]", "value": 88, "unit": "%"}, {"measurement": "Change of water content immediately before the treatment", "setting": "[4]; [10]", "value": 97, "unit": "%"}, {"measurement": "Change of water content immediately after the second treatment", "setting": "[4]; [11]", "value": 76, "unit": "%"}, {"measurement": "Change of water content immediately before the treatment", "setting": "[4]; [12]", "value": 111, "unit": "%"}, {"measurement": "Change of water content immediately after the second treatment", "setting": "[4]; [13]", "value": 78, "unit": "%"}, {"measurement": "Change of water content immediately before the treatment", "setting": "[4]; [14]", "value": 80, "unit": "%"}, {"measurement": "Change of water content immediately after the second treatment", "setting": "[4]; [15]", "value": 73, "unit": "%"}, {"measurement": "water content in the skin, tendency in words", "setting": "[4]", "value": "tendency to decrease immediately after the treatment"}, {"measurement": "IL-1α", "setting": "[7]; 10 ppm test compound", "value": 172.16, "unit": "pg/well"}, {"measurement": "IL-1α", "setting": "[7]; 30 ppm test compound", "value": 216.18, "unit": "pg/well"}, {"measurement": "IL-1α", "setting": "[7]; 60 ppm test compound", "value": 333.05, "unit": "pg/well"}, {"measurement": "IL-1α", "setting": "[7]; 100 ppm test compound", "value": 313.78, "unit": "pg/well"}, {"measurement": "IL-1α", "setting": "[7]; 300 ppm test compound", "value": 269.13, "unit": "pg/well"}, {"measurement": "Desquamation", "setting": "[5]", "value": "Somewhat aggravated"}, {"measurement": "Erythema", "setting": "[5]", "value": "None"}, {"measurement": "Desquamation", "setting": "[5]; listed as N-cocoyl-L-glutamate", "value": "much desquamation"}, {"measurement": "NR, IC50", "setting": "[6]", "value": 48, "unit": "ppm"}]}]}
